{"source": "patent US20190111040A1", "about": "“IN VIVO AMELIORATION OF ENDOGENOUS ANTI-TUMOR AUTOANTIBODIES TARGETING SURFACE TUMOR ANTIGENS VIA LOW-DOSE P4N” (THE JOHNS HOPKINS UNIVERSITY, priority 2016, published 2019)", "key": {"[1]": {"test": "In vivo effects of P4N on antibody production and B cell differentiation (EGFP immunization)", "design": "species or system BALB/c mice", "experimental": "In vivo effects of P4N on antibody production and B cell differentiation. Mice were immunized and boosted with 100 μg EGFP in 100 μl of PBS by intraperitoneal injection once every week and simultaneously treated with or without 5 mg/kg P4N once or three times per week. Blood samples were collected from the retro-orbital plexus of the mice every week. The titers of anti-EGFP antibodies in sera were measured by enzyme-linked immunosorbent assay (ELISA). Briefly, each well of a microtiter plate (Nunc, Wiesbaden, Germany) was coated with 100 ng of rEGFP in 100 μl of PBS. The sera were 6400× diluted by PBS and added to the antigen-coated wells, and their titers were measured as described above. The isotypes of anti-EGFP antibodies in sera were also measured as described previously.\nThe splenocytes of P4N-treated or untreated mice were harvested and probed with anti-CD19-FITC, anti-CD23-APC, anti-CD38-APC, anti-CD27-APC, anti-CD138-APC, anti-CD5-PE or anti-CD1d-Alexa 647 (BioLegend) antibodies and analyzed by flow cytometry (BD Biosciences). The definitions of the cell types were as described above, except for memory B cells (CD19+CD27+) and plasma cells (CD19+CD138+). The indices of different types of B cell proliferation were calculated as follows: (the number of splenocytes×the percentage of each B cell population in treated splenocytes)/(the number of splenocytes×the percentage of each B cell population in untreated splenocytes)."}, "[2]": {"system": "mouse splenocytes", "test": "Effect of P4N on B cell lineage in mouse splenocytes in vitro", "type": "cell-based", "experimental": "The effect of P4N on changes in B cell lineage in vitro. Single cell suspensions of mouse splenocytes were obtained by grinding the spleens from healthy mice. The suspended splenocytes were treated with or without 0.1 or 0.2 μM of P4N for 48 h, and the percentage of naïve B cells, activated B cells, B1 cells or Breg cells were measured after staining with the following fluorochrome conjugates using flow cytometry (BD Biosciences): anti-CD19-FITC, anti-CD-23-APC, anti-CD-38-APC, anti-CD5-PE or anti-CD1d-Alexa 647 (BioLegend, San Diego, Calif.). The cell types were defined as follows: naïve B cells (CD19+CD23+), activated B cells (CD19+CD38+), B1 cells (CD19+CD5+) and Breg cells (CD19+CD5+CD1d+). The indices of different types of B cell proliferation were calculated as follows: (the number of splenocytes×the percentage of each B cell population in treated splenocytes)/(the number of splenocytes×the percentage of each B cell population in untreated splenocytes)."}, "[3]": {"system": "THP-1 cells", "test": "Activin A and BAFF mRNA and protein in THP-1 cells, RT-PCR and ELISA", "type": "cell-based", "experimental": "FIGS. 5A-5F depict the expression of Activin A/BAFF induced by P4N treatments. (A) P4N induced Activin A or BAFF expression in human PBMCs as determined by RT-PCR. S1-S5 display different individual blood samples collected from 5 different human donors; N, no treatment; P, P4N-treatment (3 μM). The change in Activin A and BAFF expression (mean of 5 patients) relative to the control (NC) is plotted as a histogram (B) The effect of increasing dosages of P4N for 12 h on mRNA and protein levels of Activin A or BAFF in THP-1 cells was analyzed by RT-PCR and ELISA. (C) The effect of 6 μM P4N on mRNA and protein levels of Activin A or BAFF in THP-1 cells was determined at a different time period. (D) The effect of different inhibitors on Activin A-induced BAFF expression was examined. The expression of BAFF mRNA in inhibitor-treated THP-1 cells was determined by RT-PCR, and (E) BAFF protein secretion was measured by ELISA. (F) The effect of THP-1 conditioned media on the proliferation of Raji cells and OKT3 hybridoma cells were determined. Media were harvested, in which THP-1 cells were pre-treated without inhibitor (2) or with SB431542 (3), A83-01 (4), SIS3 (5), SB203580 (6) or PD98059 (7) and then treated with P4N for 12 h. The results are expressed as % viable cells relative to the control (NC, media from untreated THP-1 cells). All values are the means of triplicate samples±SEM. The significant differences in the results of inhibitor and P4N-treated groups compared with the untreated group are indicated by ***P<0.001.\nReverse transcription PCR. Human PBMCs or THP-1 cells were treated with P4N, and then the mRNA expression of INHBA and BAFF in these cells was measured by reverse transcription PCR. Briefly, total cellular RNA was extracted with Trizol reagent (Invitrogen) and reverse-transcribed into cDNA using the Superscript RT-kit (Invitrogen). The cDNA of INHBA and BAFF were then amplified by PCR. GAPDH cDNA in the samples was used to normalize the loading amounts in each reaction. […]"}, "[4]": {"system": "PBMCs", "test": "Cytokine and chemokine profile of P4N treated PBMC, Bio-Plex", "type": "cell-based, human", "settings": "3 μM P4N", "experimental": "PBMCs isolated from 7 healthy donors were treated with 3 μM of P4N for 48 h. Supernatants were collected and analyzed for human cytokines using the Bio-Plex assay. Shown are the changed results of the production of 27 human cytokines when PBMCs were treated with P4N in three independent experiments. The levels of IL-4, IL-5, IL-7, IL-9, Eotaxin and FGF were undetectable.\nThe effects of P4N on the profile of cytokine expression. PBMCs (2×10^6 cells/ml) from seven healthy individuals were seeded in each well of a 24-well microplate and treated with 3 μM of P4N for 24 h. Cell supernatants were collected for analysis of cytokine levels by a cytokine multiplex assay using the Bio-Plex Pro Human Cytokine Standard Group I 27-Plex, following the manufacturer's protocol (Bio-Rad, Hercules, Calif.). The change levels of cytokine were calculated as follows: Change level=(value of the P4N-treated cells)/(value of the untreated cells)×100%."}}, "note": "Structures can show the parent of a compound that is named as a salt."}
{"smiles": "C[C@H](Cc1ccc(OCCN2CCCCC2)c(OCCN2CCCCC2)c1)[C@@H](C)Cc1ccc(OCCN2CCCCC2)c(OCCN2CCCCC2)c1", "note": "[P4N, meso-2,3-dimethyl-1,4-bis(3,4-[2-(piperidino)ethoxyphenyl])butane tetrakishydrochloride salt]", "values": [{"measurement": "total specific anti-EGFP Ig production", "setting": "[1]; 5 mg/kg P4N once or three times a week with EGFP", "result": "dramatically enhanced"}, {"measurement": "B cell differentiation to plasma cells", "setting": "[1]; compared to EGFP immunization", "result": "greatly stimulated"}, {"measurement": "IgG1, IgG2b and IgA production", "setting": "[1]; immunization with P4N", "result": "significantly increased"}, {"measurement": "total B cell proliferation in mouse splenocytes", "setting": "[2]; 48 h", "result": "increased total B cell proliferation"}, {"measurement": "number of activated B cells", "setting": "[2]; absence of antigen stimulation", "result": "had no effect"}, {"measurement": "time of elevated BAFF expression", "setting": "[3]; THP-1, 6 μM P4N", "result": 8, "unit": "h"}, {"measurement": "time of up-regulated mRNA expression of Activin A", "setting": "[3]; THP-1, 6 μM P4N", "result": 2, "unit": "h"}, {"measurement": "dose dependence of Activin A and BAFF mRNA and protein levels", "setting": "[3]; THP-1, increasing dosages of P4N, 12 h", "result": "dose-dependent manner"}, {"measurement": "levels of pro-inflammatory cytokines (TNF-α, IL-1P and IL-6) and chemokines (IL-8, IP-10, MIP-1α, MIP-1β and RANTES)", "setting": "[4]", "result": "significantly increased"}, {"measurement": "levels of IL-4, IL-5, IL-7, IL-9, Eotaxin and FGF", "setting": "[4]; 48 h", "result": "undetectable"}]}
